Biological target: T1, ΔF508-CFTR (Homo sapiens, UniProt P13569, DEL508-508)
T1 construct: expressed in transfected cells
Test: Membrane potential optical assay (FRET voltage-sensor dyes, VIPR), identification of potentiator compounds
Type: cell-based
Details: Table 3; assay not given
In short: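 Potentiator screen measured membrane potential via FRET between CC2-DMPE donor and DiSBAC2(3), read on VIPR II. Compound went in with the first addition of chloride-free gluconate bath; cells were ΔF508-CFTR-expressing NIH3T3 mouse fibroblasts, temperature-corrected at 27 °C for 24 h.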

T1 sequence (P13569 with tags, fused parts or gaps DEL508-508): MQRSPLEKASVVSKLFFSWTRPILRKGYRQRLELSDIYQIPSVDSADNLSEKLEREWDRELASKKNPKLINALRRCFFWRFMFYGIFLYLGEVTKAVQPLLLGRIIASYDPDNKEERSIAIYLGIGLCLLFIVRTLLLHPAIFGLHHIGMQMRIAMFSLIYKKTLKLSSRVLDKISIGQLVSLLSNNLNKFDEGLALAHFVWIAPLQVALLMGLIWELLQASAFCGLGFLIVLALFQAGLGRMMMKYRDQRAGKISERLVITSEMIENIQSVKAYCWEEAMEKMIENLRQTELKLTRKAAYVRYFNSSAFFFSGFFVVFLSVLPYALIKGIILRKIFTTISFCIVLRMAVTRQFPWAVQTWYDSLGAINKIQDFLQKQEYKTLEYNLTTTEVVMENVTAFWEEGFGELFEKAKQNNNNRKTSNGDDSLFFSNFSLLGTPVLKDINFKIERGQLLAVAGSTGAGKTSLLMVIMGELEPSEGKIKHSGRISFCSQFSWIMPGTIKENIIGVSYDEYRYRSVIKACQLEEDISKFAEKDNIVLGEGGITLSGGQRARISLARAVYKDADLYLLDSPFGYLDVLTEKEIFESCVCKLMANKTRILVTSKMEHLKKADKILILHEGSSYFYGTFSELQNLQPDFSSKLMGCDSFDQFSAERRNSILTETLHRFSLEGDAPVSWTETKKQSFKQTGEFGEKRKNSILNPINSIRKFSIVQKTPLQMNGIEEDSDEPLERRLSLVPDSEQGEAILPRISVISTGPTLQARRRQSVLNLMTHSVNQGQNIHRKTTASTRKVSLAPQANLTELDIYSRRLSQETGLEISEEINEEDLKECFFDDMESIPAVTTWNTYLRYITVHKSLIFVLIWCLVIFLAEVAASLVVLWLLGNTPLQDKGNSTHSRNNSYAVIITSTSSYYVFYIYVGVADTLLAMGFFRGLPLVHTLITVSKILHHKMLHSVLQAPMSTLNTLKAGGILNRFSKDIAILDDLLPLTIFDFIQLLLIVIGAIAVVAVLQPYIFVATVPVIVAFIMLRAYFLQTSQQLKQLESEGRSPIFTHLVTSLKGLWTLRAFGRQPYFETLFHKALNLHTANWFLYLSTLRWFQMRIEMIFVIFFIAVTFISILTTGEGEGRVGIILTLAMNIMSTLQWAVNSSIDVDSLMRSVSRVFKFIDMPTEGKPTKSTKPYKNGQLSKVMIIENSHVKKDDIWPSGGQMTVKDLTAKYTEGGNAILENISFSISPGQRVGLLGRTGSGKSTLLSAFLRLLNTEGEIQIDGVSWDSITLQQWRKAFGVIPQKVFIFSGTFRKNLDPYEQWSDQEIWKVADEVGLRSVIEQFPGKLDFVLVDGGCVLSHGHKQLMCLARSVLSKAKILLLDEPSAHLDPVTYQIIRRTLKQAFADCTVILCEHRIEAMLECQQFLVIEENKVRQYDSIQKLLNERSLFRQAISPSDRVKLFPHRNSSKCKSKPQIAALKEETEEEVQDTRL

EC50 [µM]	Structure (SMILES)
10 to 25	CC(=O)Nc1cccc(-c2ccccc2NC(=O)c2c[nH]c3ccccc3c2=O)c1 [Compound 25, N-[2-(3-acetylaminophenyl)phenyl]-4-oxo-1H-quinoline-3-carboxamide]
< 10	N#CCc1ccc(-c2ccccc2NC(=O)c2c[nH]c3ccccc3c2=O)cc1 [Compound 333, N-[2-[4-(cyanomethyl)phenyl]phenyl]-4-oxo-1H-quinoline-3-carboxamide]
< 10	O=C(Nc1ccccc1-c1ccc2[nH]ccc2c1)c1c[nH]c2ccccc2c1=O [Compound 118, N-[2-(1H-indol-5-yl)phenyl]-4-oxo-1H-quinoline-3-carboxamide]

Same assay, conditions: Table 3; assay not given; read-out: % Activity (% Efficacy, relative efficacy)

Structure (SMILES)	Emax [%]
CC(C)CNC(=O)c1cc2cc[nH]c2cc1NC(=O)c1c[nH]c2ccccc2c1=O [Compound 343, N-[5-(Isobutylcarbamoyl)-1H-indol-6-yl]-4-oxo-1H-quinoline-3-carboxamide]	25 to 100
CC(=O)Nc1cccc(-c2ccccc2NC(=O)c2c[nH]c3ccccc3c2=O)c1 [Compound 25, N-[2-(3-acetylaminophenyl)phenyl]-4-oxo-1H-quinoline-3-carboxamide]	25 to 100
O=C(Nc1ccccc1N1CCCCC1)c1c[nH]c2ccccc2c1=O [Compound 26, 4-oxo-N-[2-(1-piperidyl)phenyl]-1H-quinoline-3-carboxamide]	25 to 100
N#CCc1ccc(-c2ccccc2NC(=O)c2c[nH]c3ccccc3c2=O)cc1 [Compound 333, N-[2-[4-(cyanomethyl)phenyl]phenyl]-4-oxo-1H-quinoline-3-carboxamide]	25 to 100
COc1ccc(-c2ccccc2NC(=O)c2c[nH]c3ccccc3c2=O)cc1OC [Compound 436, N-[2-(3,4-dimethoxyphenyl)phenyl]-4-oxo-1H-quinoline-3-carboxamide]	25 to 100
CC(C)(C)COC(=O)NCC(C)(C)c1ccc(NC(=O)c2c[nH]c3ccccc3c2=O)cc1 [Compound 341, [2-methyl-2-[4-[(4-oxo-1H-quinolin-3-yl)carbonylamino]phenyl]-propyl]aminoformic acid neopentyl ester]	25 to 100
CCCc1ccc(NC(=O)c2c[nH]c3ccccc3c2=O)cc1NC(=O)OCC [Compound 382, [5-[(4-oxo-1H-quinolin-3-yl)carbonylamino]-2-propyl-phenyl]aminoformic acid ethyl ester]	25 to 100
O=C(Nc1ccccc1-c1nc2ccccc2[nH]1)c1c[nH]c2ccccc2c1=O [Compound 227, N-[2-(3H-benzoimidazol-2-yl)phenyl]-4-oxo-1H-quinoline-3-carboxamide]	< 25
O=C(Nc1cc(O)cc(C(F)(F)F)c1)c1c[nH]c2cccc(O)c2c1=O [Compound 599, 5-hydroxy-N-[3-hydroxy-5-(trifluoromethyl)phenyl]-4-oxo-1H-quinoline-3-carboxamide]	25 to 100
O=C(Nc1ccccc1-c1ccc2[nH]ccc2c1)c1c[nH]c2ccccc2c1=O [Compound 118, N-[2-(1H-indol-5-yl)phenyl]-4-oxo-1H-quinoline-3-carboxamide]	25 to 100
O=C(Nc1cc(O)c(C23CC4CC(CC(C4)C2)C3)cc1F)c1cnc2ccccc2c1O [Compound 395, N-[4-(1-adamantyl)-2-fluoro-5-hydroxy-phenyl]-4-hydroxy-quinoline-3-carboxamide]	25 to 100
O=C(Nc1ccccc1Oc1ncc(C(F)(F)F)cc1Cl)c1c[nH]c2ccccc2c1=O [Compound 42, N-[2-[[3-chloro-5-(trifluoromethyl)-2-pyridyl]oxy]phenyl]-4-oxo-1H-quinoline-3-carboxamide]	25 to 100
CC(C)(C)c1ccc(NC(=O)c2c[nH]c3ccccc3c2=O)c(C(C)(C)C)c1O [Compound 594, N-(3-hydroxy-2,4-ditert-butyl-phenyl)-4-oxo-1H-quinoline-3-carboxamide]	> 100
O=C(Nc1cc(OCc2ccccc2)c(C2CCCCC2)cc1C(F)(F)F)c1c[nH]c2ccccc2c1=O [Compound 654, N-[5-benzyloxy-4-cyclohexyl-2-(trifluoromethyl)phenyl]-4-oxo-1H-quinoline-3-carboxamide]	25 to 100
Cc1cc(C(C)(C)C)c(O)cc1NC(=O)c1c[nH]c2ccc(F)cc2c1=O [Compound 683, 6-fluoro-N-(5-hydroxy-2-methyl-4-tert-butyl-phenyl)-4-oxo-1H-quinoline-3-carboxamide]	25 to 100
O=C(Nc1ccc2c(c1)NCCO2)c1c[nH]c2ccccc2c1=O [Compound 105, 1,4-dihydro-N-(3,4-dihydro-2H-benzo[b][1,4]oxazin-6-yl)-4-oxoquinoline-3-carboxamide]	25 to 100
Cc1cccc2c(=O)c(C(=O)Nc3cc(O)c(C(C)(C)C)cc3C(C)(C)C)c[nH]c12 [Compound 621, N-(5-hydroxy-2,4-ditert-butyl-phenyl)-8-methyl-4-oxo-1H-quinoline-3-carboxamide]	< 25
CC(C)(C)c1cc(C(C)(C)C)c(NC(=O)c2c[nH]c3cccc(N)c3c2=O)cc1O [Compound 585, 5-amino-N-(5-hydroxy-2,4-ditert-butyl-phenyl)-4-oxo-1H-quinoline-3-carboxamide]	> 100
N#Cc1cc(N2CCCC2)ccc1NC(=O)c1c[nH]c2ccccc2c1=O [Compound 622, N-(2-cyano-4-pyrrolidin-1-yl-phenyl)-4-oxo-1H-quinoline-3-carboxamide]	25 to 100
Cc1ccc(-c2ccccc2NC(=O)c2c[nH]c3ccccc3c2=O)cc1 [Compound 181, 4-oxo-N-[2-(p-tolyl)phenyl]-1H-quinoline-3-carboxamide]	25 to 100
O=C(Nc1ccccc1-c1ccccc1)c1c[nH]c2ccccc2c1=O [Compound 461, 4-oxo-N-(2-phenylphenyl)-1H-quinoline-3-carboxamide]	25 to 100
CC1(c2ccc(NC(=O)c3c[nH]c4ccccc4c3=O)cc2)COC1 [Compound 523, N-[4-(3-methyloxetan-3-yl)phenyl]-4-oxo-1H-quinoline-3-carboxamide]	25 to 100
CN(c1ccc(F)cc1)S(=O)(=O)c1ccc2[nH]cc(C(=O)Nc3cc4[nH]ccc4cc3C(C)(C)C)c(=O)c2c1 [Compound 406, 6-[(4-fluorophenyl)-methyl-sulfamoyl]-4-oxo-N-(5-tert-butyl-1H-indol-6-yl)-1H-quinoline-3-carboxamide]	25 to 100
CC(C)OC(=O)c1cccc(-c2ccccc2NC(=O)c2c[nH]c3ccccc3c2=O)c1 [Compound 71, 3-[2-[(4-oxo-1H-quinolin-3-yl)carbonylamino]phenyl]benzoic acid isopropyl ester]	25 to 100
O=C(Nc1ccc2ccccc2n1)c1c[nH]c2ccccc2c1=O [Compound 19, 4-oxo-N-(2-quinolyl)-1H-quinoline-3-carboxamide]	< 25
CC(C)(C)c1cc(F)c(NC(=O)c2c[nH]c3c(C#N)cccc3c2=O)cc1O [Compound 519, 8-cyano-N-(2-fluoro-5-hydroxy-4-tert-butyl-phenyl)-4-oxo-1H-quinoline-3-carboxamide]	25 to 100
O=C(Nc1ccc(-c2ccccc2CNC(=O)C(F)(F)F)cc1)c1c[nH]c2ccccc2c1=O [Compound 224, 4-oxo-N-[4-[2-[(2,2,2-trifluoroacetyl)aminomethyl]phenyl]phenyl]-1H-quinoline-3-carboxamide]	25 to 100

Second part, the compound after the results:

Emax [%]	Structure (SMILES)
25 to 100	C#Cc1ccc(NC(=O)c2c[nH]c3ccccc3c2=O)cc1 [Compound 332, N-(4-ethynylphenyl)-4-oxo-1H-quinoline-3-carboxamide]
< 25	Cc1ccc(NC(=O)c2c[nH]c3ccccc3c2=O)nc1 [Compound 195, N-(5-methyl-2-pyridyl)-4-oxo-1H-quinoline-3-carboxamide]
25 to 100	CC(C)(C)c1ccc(NC(=O)c2c[nH]c3ccccc3c2=O)cc1C#N [Compound 13, N-(3-cyano-4-tert-butyl-phenyl)-4-oxo-1H-quinoline-3-carboxamide]
25 to 100	COc1ccc(C(C)(C)C)cc1NC(=O)c1c[nH]c2ccccc2c1=O [Compound 211, N-(2-methoxy-5-tert-butyl-phenyl)-4-oxo-1H-quinoline-3-carboxamide]
25 to 100	CC(=O)c1ccccc1NC(=O)c1c[nH]c2ccccc2c1=O [Compound 365, N-(2-acetylphenyl)-4-oxo-1H-quinoline-3-carboxamide]
< 25	O=C(Nc1ccncc1)c1c[nH]c2ccccc2c1=O [Compound 53, 4-oxo-N-(4-pyridyl)-1H-quinoline-3-carboxamide]
25 to 100	O=C(Nc1ccc(C(F)(F)F)cc1Cl)c1c[nH]c2ccccc2c1=O [Compound 532, N-[2-chloro-4-(trifluoromethyl)phenyl]-4-oxo-1H-quinoline-3-carboxamide]
< 25	NS(=O)(=O)c1ccccc1NC(=O)c1c[nH]c2ccccc2c1=O [Compound 78, 4-oxo-N-(2-sulfamoylphenyl)-1H-quinoline-3-carboxamide]
25 to 100	Cc1cc2ccc(NC(=O)c3c[nH]c4ccccc4c3=O)cc2[nH]1 [Compound 104, N-(2-methyl-1H-indol-6-yl)-4-oxo-1H-quinoline-3-carboxamide]
< 25	COc1c(N)cc(C(C)(C)C)cc1NC(=O)c1c[nH]c2ccccc2c1=O [Compound 55, N-(3-amino-2-methoxy-5-tert-butyl-phenyl)-4-oxo-1H-quinoline-3-carboxamide]
25 to 100	Cc1cccc(NC(=O)c2c[nH]c3ccccc3c2=O)c1C [Compound 61, N-(2,3-dimethylphenyl)-4-oxo-1H-quinoline-3-carboxamide]
25 to 100	Cc1c(NC(=O)c2c[nH]c3ccccc3c2=O)cccc1C(F)(F)F [Compound 387, N-[2-methyl-3-(trifluoromethyl)phenyl]-4-oxo-1H-quinoline-3-carboxamide]
25 to 100	Cc1ccc(N)cc1NC(=O)c1c[nH]c2ccccc2c1=O [Compound 94, N-(5-Amino-2-methyl-phenyl)-4-oxo-1H-quinoline-3-carboxamide]
25 to 100	CCOc1ccccc1NC(=O)c1c[nH]c2ccccc2c1=O [Compound 380, N-(2-ethoxyphenyl)-4-oxo-1H-quinoline-3-carboxamide]
25 to 100	CC(C)(C)c1ccc(NC(=O)c2c[nH]c3ccccc3c2=O)cc1O [Compound 428, N-(3-hydroxy-4-tert-butyl-phenyl)-4-oxo-1H-quinoline-3-carboxamide]
25 to 100	Cc1cc(OC(F)(F)F)ccc1NC(=O)c1c[nH]c2ccccc2c1=O [Compound 538, N-[2-methyl-4-(trifluoromethoxy)phenyl]-4-oxo-1H-quinoline-3-carboxamide]
